The values that follow come from patent US20150051270A1, “Novel Cyclic Phenoxy Compounds and Improved Treatments for Cardiac and Cardiovascular Disease” (University of Nottingham, priority 2012, published 2015).

One data set has as its target T1, human beta1-adrenoceptor (Homo sapiens, UniProt P08588).
T1 construct: expressed in transfected cells; host or cells: CHO cells
Kind of data set: 3H-CGP 12177 whole cell binding, beta1. The note with it: 3H-CGP12177 whole-cell binding, CHO cells expressing human beta1-adrenoceptor, given as negative Log KD; for Kd: read-out: Beta 1 Log KD (converted). As for the experimental part: (§1) Selectivity of ligands for the three beta-adrenoceptors was assessed by whole-cell binding studies using ^3H-CGP12177 in CHO cells expressing the human beta1, beta2 or beta3-adrenoceptors respectively essentially as described by Baker (2005; Br. J Pharmacol: 144, 317-22). Values shown are KD values determined as described by Baker (2005). KD represents the concentration of compound required to occupy 50% of the receptors in cells or tissues.
(§2) The selectivity of a ligand is given by the ratio of beta-1 to beta-2 KD. Accordingly a difference of one in the logarithmic values thereof represents a 10-fold selectivity, a difference of 2 represents 100-fold selectivity and a difference of 3 represents 1000-fold selectivity etc.

The next data set deals with T2, human beta2-adrenoceptor (Homo sapiens, UniProt P07550).
T2 construct: expressed in transfected cells; host or cells: CHO cells
The data set can be described thus: 3H-CGP 12177 whole cell binding, beta2. As to conditions: 3H-CGP12177 whole-cell binding, CHO cells expressing human beta2-adrenoceptor, given as negative Log KD; for Kd: read-out: Beta 2 Log KD (converted). As for the experimental part: as §1, §2

T1 sequence (P08588 whole entry): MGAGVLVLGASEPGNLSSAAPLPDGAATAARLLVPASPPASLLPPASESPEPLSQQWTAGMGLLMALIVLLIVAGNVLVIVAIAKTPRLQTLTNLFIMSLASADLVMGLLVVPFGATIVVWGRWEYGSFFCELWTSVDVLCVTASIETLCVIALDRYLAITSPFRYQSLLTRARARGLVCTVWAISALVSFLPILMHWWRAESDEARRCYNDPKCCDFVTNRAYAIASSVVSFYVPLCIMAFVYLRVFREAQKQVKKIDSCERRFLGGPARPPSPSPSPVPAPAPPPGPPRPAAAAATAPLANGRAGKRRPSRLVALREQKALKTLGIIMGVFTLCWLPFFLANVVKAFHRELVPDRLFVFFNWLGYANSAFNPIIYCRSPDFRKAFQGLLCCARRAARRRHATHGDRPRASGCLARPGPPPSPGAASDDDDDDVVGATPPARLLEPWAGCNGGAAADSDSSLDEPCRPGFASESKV

On to `O=C(NCCNCC(O)COc1ccc2c(c1)OC(c1ccccc1)CC2=O)Nc1cccc(Cl)c1` (stereo not shown) [Example 4a, 1-(3-chlorophenyl)-3-(2-(2-hydroxy-3-(4-oxo-2-phenylchroman-7-yloxy)propylamino)ethyl)urea], for which the Kd (in general, the concentration at which binding is half-saturated) on human beta1-adrenoceptor is 407 nM; at human beta2-adrenoceptor it was 3090 nM.
As to `CCOCc1cc2cc(OCC(O)CNCCNC(=O)Nc3ccc(O)cc3)ccc2o1` (stereo not shown) [Example 610a, 1-(2-(3-(2-(Ethoxymethyl)benzofuran-5-yloxy)-2-hydroxypropylamino)ethyl)-3-(4-hydroxyphenyl)urea], the melting point (usually the temperature of the solid-liquid transition) came to 131.5 °C. Besides, the Kd at human beta1-adrenoceptor is 257 nM. Further, at human beta2-adrenoceptor, the Kd is 10200 nM.
For “1-(2-(3-(3-(Ethoxymethyl)-2,3-dihydrobenzo[b][1,4]dioxin-6-yloxy)-2-hydroxypropylamino)ethyl)-3-(4-hydroxyphenyl)urea and 1-(2-(3-(2-(ethoxymethyl)-2,3-dihydrobenzo[b][1,4]dioxin-6-yloxyl-2-hydroxypropylamino)ethyl)-3-(4-hydroxyphenyl)urea [Example 76]”, the “Beta 1 Log KD” value on human beta1-adrenoceptor is reported as −6.84. The “Beta 2 Log KD” value at human beta2-adrenoceptor is recorded as −4.69.
Regarding `O=C(NCCNCC(O)C1COc2ccccc2O1)Nc1ccc(O)cc1` (mixture of isomers) [Example 46b, 1-(2-(2-(2,3-dihydrobenzo[b][1,4]dioxin-2-yl)-2-hydroxyethylamino)ethyl)-3-(4-hydroxyphenyl)urea], the melting point stood at 141 °C. Moreover, at human beta1-adrenoceptor, the Kd was 11 nM. The Kd on human beta2-adrenoceptor is 97.7 nM.
With `O=C(NCCNCC(O)C1Cc2cc(OCCOC3CCCC3)ccc2O1)Nc1ccc(O)cc1` (stereo not shown) [Example 63a, 1-(2-(2-(5-(2-(cyclopentyloxy)ethoxy)-2,3-dihydrobenzofuran-2-yl)-2-hydroxyethylamino)ethyl)-3-(4-hydroxyphenyl)urea], the Kd at human beta1-adrenoceptor was 537 nM; at human beta2-adrenoceptor, 26900 nM.
Compound `O=C(NCCNCC(O)COc1ccc2oc(=O)ccc2c1)Nc1cccc(Cl)c1` (stereo not shown) [Example 4c, 1-(3-chlorophenyl)-3-(2-(2-hydroxy-3-(2-oxo-2H-chromen-6-yloxy)propylamino)ethyl)urea] came in with a melting point of 160 °C. In addition, on human beta1-adrenoceptor, the Kd was 355 nM. Moreover, the Kd on human beta2-adrenoceptor is 9330 nM.
Take `CCOC(=O)c1cc2cc(OCC(O)CNCCNC(=O)Nc3cccc(Cl)c3)ccc2o1` (stereo not shown) [Example 24a, Ethyl-5-(3-(2-(3-(3-Chlorophenyl)ureido)ethylamino)-2-hydropropoxy)benzofuran-2-carboxylate]: at human beta1-adrenoceptor, the “Beta 1 Log KD” value is −6.50. Moreover, the “Beta 2 Log KD” value at human beta2-adrenoceptor is −5.27.
For the compound `O=C(NCCNCC(O)C1COc2ccccc2O1)Nc1cccc(Cl)c1` (stereo not shown) [Example 46a, 1-(3-chlorophenyl)-3-(2-(2-(2,3-dihydrobenzo[b][1,4]dioxin-2-yl)-2-hydroxyethylamino)ethyl)urea], the melting point was 141 °C. Also, the Kd at human beta1-adrenoceptor is 3.98 nM. The Kd on human beta2-adrenoceptor is 57.5 nM.
As for “1-(2-(2-Hydroxy-3-(2-methylbenzofuran-5-yloxy)propylamino)ethyl)-3-(4-hydroxyphenyl)urea [Example 610c]”, the “Beta 1 Log KD” value on human beta1-adrenoceptor is −6.55. Further, the “Beta 2 Log KD” value on human beta2-adrenoceptor is reported as −5.16.
Consider `O=C(NCCNCC(O)COc1ccc2oc(-c3ccccc3)cc(=O)c2c1)Nc1cccc(Cl)c1` (stereo not shown) [Example 4b, 1-(3-chlorophenyl)-3-(2-(2-hydroxy-3-(4-oxo-2-phenyl-4H-chromen-6-yloxy)propylamino)ethyl)urea], for which the melting point stood at 165 °C. For the same compound, on human beta1-adrenoceptor, the Kd was 617 nM. In addition, on human beta2-adrenoceptor, the Kd was 4470 nM.
As to `Cc1cc(=O)oc2ccc(OCC(O)CNCCNC(=O)Nc3cccc(Cl)c3)cc12` (stereo not shown) [Example 4d, 1-(3-chlorophenyl)-3-(2-(2-hydroxy-3-(4-methyl-2-oxo-2H-chromen-6-yloxy)propylamino)ethyl)urea], the melting point is 158 °C. The Kd at human beta1-adrenoceptor is 389 nM. In addition, the Kd on human beta2-adrenoceptor is 4470 nM.
As to `O=C(NCCNCC(O)c1cc2cc(OCCOC3CCCC3)ccc2o1)Nc1ccc(O)cc1` (stereo not shown) [Example 63b, 1-(2-(2-(5-(2-(cyclopentyloxy)ethoxy)benzofuran-2-yl)-2-hydroxyethylamino)ethyl)-3-(4-hydroxyphenyl)urea], the figures for the Kd on human beta1-adrenoceptor and at human beta2-adrenoceptor were 155 nM and 44700 nM, respectively.
As to `Cc1ccc2cc(C(O)CNCCNC(=O)Nc3ccc(O)cc3)oc2c1` (stereo not shown) [Example 63c], the melting point came to 152.5 °C. Besides, the Kd on human beta1-adrenoceptor is 46.8 nM. In addition, the Kd on human beta2-adrenoceptor is 525 nM.
In the case of `CCOCC1Cc2cc(OCC(O)CNCCNC(=O)Nc3ccc(O)cc3)ccc2O1` (stereo not shown) [Example 610b], at human beta1-adrenoceptor, the “Beta 1 Log KD” value is given as −6.78. The “Beta 2 Log KD” value at human beta2-adrenoceptor is recorded as −4.79.
On to `NC(=O)c1cc2cc(OCC(O)CNCCNC(=O)Nc3cccc(Cl)c3)ccc2o1` (stereo not shown) [Example 24b, 5-(3-(2-(3-(3-chlorophenyl)ureido)ethylamino)-2-hydropropoxy)benzofuran-2-carboxamide], for which the values for the Kd on human beta1-adrenoceptor and on human beta2-adrenoceptor were 501 nM and 6460 nM, respectively.
The compound `COc1ccc2oc(C(O)CNCCNC(=O)Nc3ccc(O)cc3)cc2c1` (stereo not shown) [Example 63d] came in with a melting point of 151 °C. Further, on human beta1-adrenoceptor, the Kd was 224 nM. Also, the Kd on human beta2-adrenoceptor is 3160 nM.
